Experimental data reported in PMC6268492, “Synthesis and Antiangiogenic Activity of Novel Gambogic Acid Derivatives” (Molecules, 2012).
Read-outs that look alike come from different tables or passages of the source.

Experiments:
[1] = test system: transgenic fli-1: enhanced GFP zebrafish embryos; assay: Zebrafish embryo assay: antiangiogenic effects; assay type: in vivo, zebrafish (Danio rerio); conditions: Danio rerio, zebrafish embryos
Method: As stated previously, zebrafish is regarded as a powerful tool in the study of human diseases. […] In this study, all GA derivatives were incubated with the transgenic friend leukemia integration-1 (fli-1): enhanced GFP zebrafish embryos which carried a fli-1 promoter which can drive the expression of GFP in the whole endothelium.
Figure 1 Effects on neovascularization in zebrafish embryos. The transgenic fli-1: enhanced GFP zebrafish embryos in embryo water (0.2 g/L of instant ocean salt in distilled water) incubated with 1 μM of compounds at 6 h postfertilization (hpf) for 24 h. Zebrafish embryos were imaged (Imager.Z1, magnification: left, 40×; right, 100×).
Using transgenic fli-1: enhanced GFP zebrafish embryos, we investigated the effects of all compounds on angiogenesis. […] At about 6 h post fertilization (hpf), the embryos were sorted in the 6-well plate (six embryos/well), removing dead and unhealthy embryos. Then the embryos were treated with the indicated concentrations of compounds which were added into embryo water. After incubation for 24 or 48 h, the embryos were anesthetized using 0.05% 2-phenoxyethanol in embryo water, quantified and photographed.

zebrafish embryos [2] = assay: Zebrafish toxicity: heart rates; assay type: in vivo; conditions: transgenic fli-1:enhanced GFP (fli-1:EGFP) line, zebrafish, in vivo
Method: (§1) To investigate the toxicity of these four compounds, the heart rates and the mortality rates of zebrafish embryos were recorded (Table 2 and Table 3). The heart rate of zebrafish in the control group was 117 beats/min.
(§2) Using transgenic fli-1: enhanced GFP zebrafish embryos, we investigated the effects of all compounds on angiogenesis. Zebrafish embryos were generated by natural pairwise mating and raised at 28.5 °C in embryo water (0.2 g/L of Instant Ocean Salt in distilled water). At about 6 h post fertilization (hpf), the embryos were sorted in the 6-well plate (six embryos/well), removing dead and unhealthy embryos. Then the embryos were treated with the indicated concentrations of compounds which were added into embryo water. After incubation for 24 or 48 h, the embryos were anesthetized using 0.05% 2-phenoxyethanol in embryo water, quantified and photographed.

zebrafish embryos [3] = assay: Zebrafish toxicity: mortality rate; assay type: in vivo, zebrafish (Danio rerio)
Method: as §1, §2

HUVECs = assay: Matrigel tube formation assay; assay type: cell-based, Human; conditions: Homo sapiens, HUVEC, 0.5 μM, 6 h, vs control, read-out: inhibitory rates of tube formation
Method: In the later stages of angiogenesis, tube formation of ECs is also an important process. Thus, a Matrigel tube formation assay was applied to assess the ability of HUVECs to form ECs vascular structures which is believed to be significant in new vessel formation.
Figure 4 Effects on the HUVECs tube formation. (I) HUVECs (1 × 10^4 cells) suspended in DMEM containing each compound (0.5 or 1 or 2 μM) were added to the Matrigel. Control was treated with DMEM alone. After incubation for 6 h at 37 °C, capillary networks were photographed and quantified (Olympus CKX41, magnification: 100×); (II) Rates of the HUVECs tube formation. The number of intact tubes was counted in five randomly chosen regions and expressed as the percentage of the control. The results were expressed as mean ±SD. ** p < 0.01; *** p < 0.005 compared with control.
Matrigel was dissolved at 4 °C overnight. Each well of prechilled 96-well plates was coated with 50 μL of Matrigel, incubated and solidified at 37 °C for 45 min. After removing the unsolidified fluid, HUVECs at the density of 1 × 10^4 were cultured in DMEM containing the indicated concentrations of compounds for 6 h. Controls were treated with the DMEM alone. Images were digitally captured and quantitatively analyzed (Olympus). The numbers and line lengths of the circular tubules formed by the cells were calculated manually. The values were observed from five randomly selected fields.

A549 = assay: MTT assay, cell proliferation; assay type: cell-based; conditions: Homo sapiens, 24 h, read-out: IC50, inhibition of cell proliferation
Method: (§3) HepG2, HCT116, HeLa and LO2 cell lines were cultured in DMEM containing 10% fetal bovine serum (FBS), 100 IU/mL penicillin and 100 µg/mL streptomycin; A549 and K562 cell lines were cultured in RPMI 1640 medium containing 10% fetal bovine serum (FBS), 100 IU/mL penicillin and 100 µg/mL streptomycin; Human umbilical vein endothelial cells (HUVECs) were cultured on gelatin-coated culture flasks in M-199 medium with 20% fetal bovine serum (FBS), 2 ng/mL VEGF, 10 ng/mL basic FGF, 100 IU/mL penicillin, and 100 μg/mL streptomycin; all of them were obtained from the American Type Culture Collection (ATCC) and all cell lines were incubated in an atmosphere of 5% CO2 at 37 °C.
(§4) Cells were treated with various concentrations of compound in 96-well culture plates for 24 h in final volumes of 200 μL (5 × 10^3 cells/well). Then 20 μL of MTT solution (5 mg/mL) was added to each well, and cells were incubated for an additional 3 h. Then the medium was carefully removed, and precipitates were dissolved in 150 μL of DMSO, shaken mechanically for 30 min, and then absorbance values at a wavelength of 570 nm were taken on a spectrophotometer (Molecular Devices, Sunnyvale, CA, USA). Values were calculated using percentage of growth versus untreated control. The IC50 was defined as the concentration that caused 50% inhibition of cell proliferation, and was calculated by SAS statistical software.

HCT116 = assay: MTT assay, cell proliferation; assay type: cell-based; conditions: Homo sapiens, HCT-116, 24 h, read-out: IC50, inhibition of cell proliferation
Method: as §3, §4

HeLa = assay: MTT assay, cell proliferation; assay type: cell-based; conditions: Homo sapiens, 24 h, read-out: IC50, inhibition of cell proliferation
Method: as §3, §4

HepG2 = assay: MTT assay, cell proliferation; assay type: cell-based; conditions: Homo sapiens, 24 h, read-out: IC50, inhibition of cell proliferation
Method: as §3, §4

K562 = assay: MTT assay, cell proliferation; assay type: cell-based; conditions: Homo sapiens, 24 h, read-out: IC50, inhibition of cell proliferation
Method: as §3, §4

HUVEC = assay: MTT assay, cell proliferation; assay type: cell-based, Human; conditions: Homo sapiens, 24 h, read-out: IC50, inhibition of cell proliferation
Method: Inhibiting the proliferation of ECs is another important strategy for antiangiogenesis. […] As the exposure time of these derivatives was 24 h in the migration assay and 6 h in the tube formation assay, the effect of the incubation for 24 h in the presence of these compounds on HUVECs proliferation was then tested. Cell viability was assessed by the MTT method. We can see from Table 4 that these compounds had different antiproliferative activities.
as §3, §4

LO2 = assay: MTT assay, cytotoxicity; assay type: cell-based; conditions: Homo sapiens, L02, 24 h, read-out: IC50, inhibition of cell proliferation
Method: as §3, §4

[4] = vs vehicle (0.05% DMSO), read-out: Anti-angiogenic phenotype
[5] = 2.5 µM and 10 µM, zebrafish embryos

SMILES | inhibition in vivo at 1 µM ([1]; read-out: antiangiogenic rates) | inhibition in vivo at 1 µM [1, 4] | inhibition in vivo at 2.5 µM [1, 4] | inhibition in vivo at 10 µM [1, 4] | Heart rates of zebrafish (zebrafish embryos [2]; 2.5 μM) | Heart rates of zebrafish (zebrafish embryos [2]; 10 μM) | Mortality rates (zebrafish embryos [3]; 1 μM, zebrafish) | Mortality rates (zebrafish embryos [3]; [5]) | Mortality rates (zebrafish embryos [3]; 2.5 μM, zebrafish) | Mortality rates (zebrafish embryos [3]; 10 μM, zebrafish) | inhibition at 0.5 µM (HUVECs) | IC50 (A549) | IC50 (HCT116) | IC50 (HeLa) | IC50 (HepG2) | IC50 (K562) | IC50 (HUVEC) | IC50 (LO2)
CC(=O)Nc1ccc(OC(=O)/C(C)=C\CC23OC(C)(C)C4CC(C=C5C(=O)c6c(O)c7c(c(CC=C(C)C)c6OC542)OC(C)(CCC=C(C)C)C=C7)C3=O)cc1 (stereo not drawn) [Compound 4, 4-Acetamidephenyl gambogate] | 25 to 50% | 25 to 50% | 50 to 75% | > 75% | 80 ± 5.31 beats/min | 54 ± 4.00 beats/min | 0% | less than 20% | 6.7 ± 5.77 % | 20 ± 0.00 % | 43.5% | 950 ± 90 nM | 480 ± 40 nM | 1340 ± 40 nM | 1100 ± 60 nM | 410 ± 20 nM | 1170 ± 120 nM | 830 ± 30 nM
CC(C)=CCCC1(C)C=Cc2c(O)c3c(c(CC=C(C)C)c2O1)OC12C(=CC4CC1C(C)(C)OC2(C/C=C(/C)C(=O)Nc1nccs1)C4=O)C3=O (stereo not drawn) [Compound 32, Thiazol-2-gambogamide] | 25 to 50% | 25 to 50% | 50 to 75% | > 75% | 60 ± 4.36 beats/min | 54 ± 3.68 beats/min | 0% | less than 20% | 6.7 ± 5.77 % | 16.7 ± 5.77 % | 39.1% | 740 ± 40 nM | 450 ± 10 nM | 1080 ± 100 nM | 810 ± 60 nM | 400 ± 20 nM | 1090 ± 90 nM | 1700 ± 480 nM
